Test results: article PMC4579270, “Identification and Characterization of an Irreversible Inhibitor of CDK2” (Chemistry & Biology, 2015)

Target: T1, CDK2^K89V/cyclin A (Homo sapiens, UniProt P24941, K89V)
T1 construct: GST (N, cleaved yes); made in house; host or cells: Escherichia coli; phosphorylated in vitro by GST-CAK
Experiment: Bandshift kinase assay after incubation and dialysis, mutant
Assay type: biochemical
Protocol: The bandshift experiment was repeated after incubating CDK2^K88E/cyclin A and CDK2^K89V/cyclin A with NU6300, NU6310, or DMSO followed by dialysis to remove unbound inhibitor (Figure S2G).
Figure S2, Related to Figure 3. Identification of the site of CDK2 modification by NU6300. (A-G) Single site CDK2 mutants CDK2D86A, CDK2K88E, and CDK2K89V identify the site of CDK2 modification by NU6300. These mutations change the CDK2 sequence to that of CDK7 and are known not to disrupt the CDK2 fold. Mass spectra of CDK2 mutants: […]
(G) Protein kinase activity of authentic CDK2 and single site CDK2 mutants following incubation with NU6300 or NU6310. Samples were taken at the indicated number of minutes after initiation of the reaction. Note that compared to authentic CDK2, the single site Lys88 and Lys89 mutants have a slower rate of reaction (Compare LHS panels). This drop in activity was expected because whereas the wild type protein was produced by co-expression with S. cerevisiae […]
the mutant proteins were activated by S. cerevisiae CAK1 phosphorylation in vitro– a relatively inefficient process as judged from the results of ESI-MS (Table S1). (H) NU6300 […]
NU6300 carbon atoms are coloured green. Rb, retinoblastoma protein, Phospho-Rb, […]
Protein expression and purification
Site-directed mutagenesis of CDK2 was performed using the QuikChange II kit (Stratagene) following the manufacturer’s instructions and verified by DNA sequencing.
Wild-type CDK2 phosphorylated at Thr160, untagged human cyclin A2 (residues 174-432), S. cerevisiae GST–CAK, GST–3C-protease and GST–pRb (residues 792–928) were expressed and purified as previously described (Brown et al., 1999a; Brown et al., 1999b; Welburn and Endicott, 2005). […]
CDK2/cyclin A (200 µM) was incubated overnight with 1 mM inhibitor or DMSO, and then dialysed for 8 h with regular replacement of dialysis buffer into HEPES-buffered saline (50 mM HEPES, pH 7.5, 250 mM NaCl, 0.02% MTG). […] Reactions were stopped by addition of SDS-PAGE loading buffer and analyzed by SDS-PAGE. […]

| SMILES | CDK2 activity against Rb after incubation with inhibitor and dialysis |
| --- | --- |
| C=CS(=O)(=O)c1ccc(Nc2nc(OCC3CCCCC3)c3nc[nH]c3n2)cc1 [NU6300, 6-(cyclohexylmethoxy)-N-(4-(vinylsulfonyl)phenyl)-9H-purin-2-amine] | recovered activity |
| CCS(=O)(=O)c1ccc(Nc2nc(OCC3CCCCC3)c3nc[nH]c3n2)cc1 [NU6310, 6-(cyclohexylmethoxy)-N-(4-(ethylsulfonyl)phenyl)-9H-purin-2-amine] | recovered their activity |
